Assay results taken from patent US20080182805A1, “O-GlcNAcase-specific inhibitor and substrate engineered by the extension of the N-Acetyl moiety” (The Gov. of the U.S.A., as represented by the Secretary, …, priority 2007, published 2008).

Tests used:
fat cells = details: cited from earlier work
HEX B = target: T1, HEX B (Homo sapiens, UniProt P07686); assay: Inhibition of HEX B measured with nonselective fluorogenic substrate (3); format: biochemical; details: fluorescence λex=485 nm, λem=535 nm
T1 sequence (P07686 122-556): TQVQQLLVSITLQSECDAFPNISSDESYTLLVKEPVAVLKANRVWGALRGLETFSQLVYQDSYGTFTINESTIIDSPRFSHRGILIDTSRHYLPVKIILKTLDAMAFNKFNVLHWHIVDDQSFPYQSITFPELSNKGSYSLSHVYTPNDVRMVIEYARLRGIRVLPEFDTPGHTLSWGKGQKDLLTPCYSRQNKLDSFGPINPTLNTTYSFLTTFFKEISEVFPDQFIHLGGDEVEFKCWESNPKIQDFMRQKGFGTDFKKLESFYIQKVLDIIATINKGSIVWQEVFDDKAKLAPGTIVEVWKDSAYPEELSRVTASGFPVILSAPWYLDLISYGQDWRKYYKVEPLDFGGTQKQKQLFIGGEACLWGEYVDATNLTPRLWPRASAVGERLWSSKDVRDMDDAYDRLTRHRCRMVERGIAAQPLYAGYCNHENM
Procedure: (§1) The analysis of (2) was accomplished using previously reported methods.^9,11 For the determination of the inhibitory selectivity of both PUGNAc (1) and 2 at O-GlcNAcase, HEX A, and HEX B, the nonselective fluorogenic substrate (3) was utilized. The level of inhibition was determined based upon the quantification of fluorescence measured in the absence and presence of both PUGNAc (1) and (2) (intensity of fluorescence was measured at λex=485 nm at λem=535 nm). The results are compiled in FIG. 2. The analysis of (4) as a highly specific substrate for O-GlcNAcase activity was performed by the parallel treatment of O-GlcNAcase and HEX A with varying concentrations of (4) over a 45 min incubation period and the quantification of the resulting fluorescence. The results are compiled in FIG. 3.

O-GlcNAcase = target: T2, O-GlcNAcase (Homo sapiens, UniProt O60502); assay: Inhibition of O-GlcNAcase measured with nonselective fluorogenic substrate (3); format: biochemical; details: fluorescence λex=485 nm, λem=535 nm
T2 construct: made in house
T2 sequence (O60502 1-916): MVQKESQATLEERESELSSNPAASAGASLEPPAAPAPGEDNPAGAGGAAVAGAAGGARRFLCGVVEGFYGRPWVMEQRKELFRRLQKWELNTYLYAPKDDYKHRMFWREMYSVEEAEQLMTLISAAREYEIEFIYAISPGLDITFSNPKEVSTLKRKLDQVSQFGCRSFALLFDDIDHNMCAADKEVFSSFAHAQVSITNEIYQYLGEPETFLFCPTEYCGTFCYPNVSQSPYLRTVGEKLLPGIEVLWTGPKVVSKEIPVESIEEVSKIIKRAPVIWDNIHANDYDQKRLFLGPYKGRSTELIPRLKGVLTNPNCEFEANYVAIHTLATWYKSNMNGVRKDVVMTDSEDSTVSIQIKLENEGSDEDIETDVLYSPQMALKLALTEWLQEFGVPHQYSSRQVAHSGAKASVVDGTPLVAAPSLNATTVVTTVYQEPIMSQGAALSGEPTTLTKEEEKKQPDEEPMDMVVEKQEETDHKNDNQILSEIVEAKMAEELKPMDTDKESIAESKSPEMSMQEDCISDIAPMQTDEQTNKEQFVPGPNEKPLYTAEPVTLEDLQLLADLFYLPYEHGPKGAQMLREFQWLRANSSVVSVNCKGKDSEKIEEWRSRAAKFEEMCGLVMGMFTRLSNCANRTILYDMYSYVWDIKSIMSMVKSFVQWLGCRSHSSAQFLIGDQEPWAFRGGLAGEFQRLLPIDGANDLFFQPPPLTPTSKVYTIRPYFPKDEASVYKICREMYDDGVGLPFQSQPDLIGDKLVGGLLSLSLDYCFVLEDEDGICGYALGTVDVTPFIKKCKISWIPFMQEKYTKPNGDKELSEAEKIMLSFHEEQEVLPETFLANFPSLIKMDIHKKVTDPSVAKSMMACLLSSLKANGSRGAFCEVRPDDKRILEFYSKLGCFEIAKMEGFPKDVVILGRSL
Procedure: as §1

HEX A = target: T3, HEX A (Homo sapiens, UniProt P06865+P07686); assay: Inhibition of HEX A measured with nonselective fluorogenic substrate (3); format: biochemical; details: for inhibition of HEX A: fluorescence λex=485 nm, λem=535 nm
T3 sequence (P06865 89-529): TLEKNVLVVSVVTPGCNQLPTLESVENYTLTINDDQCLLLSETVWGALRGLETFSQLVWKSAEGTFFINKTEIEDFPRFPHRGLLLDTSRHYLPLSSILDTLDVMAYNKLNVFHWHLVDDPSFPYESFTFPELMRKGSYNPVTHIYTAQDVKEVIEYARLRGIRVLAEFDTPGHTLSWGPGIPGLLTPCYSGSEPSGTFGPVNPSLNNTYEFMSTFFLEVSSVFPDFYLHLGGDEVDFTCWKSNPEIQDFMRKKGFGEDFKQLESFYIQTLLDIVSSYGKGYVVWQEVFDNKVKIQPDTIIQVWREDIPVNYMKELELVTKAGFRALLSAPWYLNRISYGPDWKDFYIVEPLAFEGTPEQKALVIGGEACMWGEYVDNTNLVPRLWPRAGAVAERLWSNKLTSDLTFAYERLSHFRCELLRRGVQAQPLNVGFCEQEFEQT
T3 sequence (P07686 122-556): T1 sequence (P07686 122-556)
Procedure: as §1

| inhibition of HEX B (HEX B) | inhibition of HEX A (HEX A) | concentration up to which selectivity (no inhibition) was verified against HEX A (HEX A) | SMILES | effect on insulin resistance in fat cells (fat cells) | inhibition of O-GlcNAcase (O-GlcNAcase) |
| --- | --- | --- | --- | --- | --- |
| potently inhibit | potently inhibit | – | CC(=O)N[C@H]1/C(=N/OC(=O)Nc2ccccc2)O[C@H](CO)[C@@H](O)[C@@H]1O [PUGNAc, O-(2-acet-amido-2-deoxy-D-glucopyranosylidene)amino-N-phenylcarbamate] | induces insulin resistance | potently inhibit |
| total loss of inhibitory activity | total loss of inhibitory activity | > 30 µM | CCCCC(=O)N[C@H]1/C(=N/OC(=O)Nc2ccccc2)O[C@H](CO)[C@@H](O)[C@@H]1O [compound 2] | – | slightly decreases the inhibitory potency |
